For experiment [1], the system named is adult human dermal fibroblasts (NHDFs). In words: NHDF adhesion to IFBM-coated polystyrene. The format is cell-based. The protocol:
(§1) First, a 1.0 mg/ml solution of FFPYSHLGVLSSG-PEG (SEQ ID NO:104) was prepared in water. The solution was added to the wells of a 96 well polystyrene culture plate and incubated at 50° C. overnight. The wells were then washed twice with PBS before seeding with 300 μl of either cell type. Human fibroblast and endothelial cells were also seeded on untreated polystyrene (N=3) and peptide (non-pegylated) coated polystyrene (N=3). After overnight incubation at 37° C., the wells were washed 5 times in excess PBS, then fixed in ethanol and stained with eosin Y for cell counting and optical microscopy. Both NHDF and HUVEC cells lose their rounded morphology, spread, and adhere to the untreated control plastic. At higher magnification, marked membrane ruffling is evident.

Experiment [2] has as its system human umbilical vein endothelial cells (HUVECs). Kind of experiment: HUVEC adhesion to IFBM-coated polystyrene. The experiment is classed as cell-based. The protocol: as §1
For experiment [3] the test system is unchanged. In words: HUVEC adhesion and spreading on binding-agent-coated polystyrene wells. The following applies: 25 mg/mL coating; light microscopy after 1-hour, 2-hour or overnight culture; vs polystyrene-binding peptide lacking cell-binding domain or uncoated. The format is cell-based. The protocol:
A 25 mg/mL solution was prepared using a binding agent comprising the peptide sequence RGDFLSFVFPASAWGG (SEQ ID NO:72) in a mixture of 90 parts PBS pH 7.4 and 10 parts DMSO. Fifty (50) μl of the binding agent solution was to each of three wells of a 96-well polystyrene microtiter plate for a duration of 1 hour. In another 3 wells, 50 μl of a control peptide 25 mg/ml fluorescein-labeled FLSFVFPASAWGG (SEQ ID NO:1) was added. The wells were washed three times with PBS and non-specific protein binding sites were blocked with sterile-filtered BSA (3% in PBS) for 30 minutes with shaking at 25 rpm. […] Following 4 washes with PBS, human umbilical vein endothelial cells (HUVECs) in supplemented EBM media were seeded onto each well. Cell adhesion and spreading was monitored by light microscopy following a 1-hour, 2-hour, or overnight culture.

A short description of experiment [4]: Phage panning and ELISA for binding to polyurethane. The following applies: phage-displayed peptide, SCX16S library. Here is the method:
To detect phage that specifically bound to titanium, conventional ELISAs were performed using an anti-M13 phage antibody conjugated to HRP, followed by the addition of chromogenic agent o-phenylenediamine in 10% hydrogen peroxide. Relative binding strengths of the phage were determined by absorbance measurements at 490 nm using a microtiter plate reader.
The SCX16S library (described in Example 1) was screened for binding to polyurethane. Phage were detected, isolated, amplified, and sequenced as described in Example 2.
Background: ELISA stands for enzyme-linked immunosorbent assay.

A short description of experiment [5]: AFM pull-off force measurements on polystyrene. The format is binding. The following applies: peptide on gold-coated AFM cantilever, PBS buffer, 300 nm/sec. The source says: The adhesion strength and mode of binding are both IFBM and substrate dependent. To characterize and quantify the adhesion forces between IFBMs and synthetic and biological substrates, a state-of-the-art force spectrometer that employs a high precision, piezo driven flexure stage equipped with a capacitive displacement sensor with a position resolution of about 0.5 nm was used. A polystyrene binding peptide from the X6YX6 peptide library was used (a cysteine-terminated peptide containing the polystyrene-binding domain in the forward direction; CGSSLVGLHSYWSSPFF; SEQ ID NO:117). The cysteine-terminated peptides were then linked to a gold-coated atomic force microscope (AFM) cantilever by incubating the cantilever in a solution of the peptide (1 mg/ml). Pull-off force measurements were carried out in PBS buffer solution on a MultiMode AFM (Digital Instruments, now Veeco Instruments, Inc., Woodbury, N.Y., United States of America) by repeatedly engaging a polystyrene surface with the modified cantilever tip at a speed of 300 nm/sec. The mean adhesion force for the peptide was approximately 300 pN.

In a further experiment the test system is Human chondrocytes. In words: Cell panning of phage library on chondrocytes. The following applies: phage-displayed peptide. The experiment is classed as cell-based. The source says: The SCX16S library (described in Example 1) was screened for binding to chondrocytes. The peptides of the library were of the format SCX16S, including 16 central random amino acids, terminal fixed serines and a single cysteine residue.
Human chondrocytes were obtained from Clonetics, Inc. (San Diego, Calif., United States of America) and grown to confluency on one well of a polystyrene 6-well plate in supplemented F-12 media (Sigma-Aldrich Corp., St. Louis, Mo., United States of America). The entire cell panning procedure was free of detergent. The library was pre-cleared of phage that specifically or non-specifically bind polystyrene by incubating phage in polystyrene wells for two hours prior to addition to the cellular target. In each round, nonspecific binding sites were blocked using 5% dry milk in PBS. Phage were detected, isolated, amplified, and sequenced as described in Example 2. A representative peptide has the sequence SCSVYDHKIGRDSFYSGCS (SEQ ID NO:101). A representative peptide also has a preference for chondrocytes greater than 10 fold over endothelial cells.

[6] abbreviates: 1.0 mg/ml coating, overnight incubation at 37° C.
The mark [7] stands for this setting: coated vs untreated polystyrene.

As for “FFPYSHLGVLSSG-PEG (PEG conjugated; Polystyrene-binding peptide 104) [SEQ ID NO:104, multi-functional peptide or interfacial biomaterial (IFBM) with PEG cell-repelling segment]”, the “cell morphology and attachment on treated polystyrene” value in experiment [1] (setting [6]) was “maintain a round morphology and are not tightly adhered to the surface”; in experiment [2] (setting [6]) it was “maintain a round morphology and are not tightly adhered to the surface”. For the same substance, the “cell adhesion (cell counting)” value in experiment [1] (setting [7]) and in experiment [2] (setting [7]) was “substantially lessened” throughout. Besides, the “cell number (cell counting)” value in experiment [1] (setting [7]) and in experiment [2] (setting [7]) was “dramatically reduced” in each case.
Turning to FLSFVFPASAWGGSSGRGD [SEQ ID NO:72], the “cell adhesion and spreading” value in experiment [3] was “increased cell adhesion and cell spreading”.
Regarding “SCYVNGHNSVWVVVFWGVS (Polyurethane-binding peptide 1) [SEQ ID NO:23]”, the “specific binding to polyurethane” value in experiment [4] is recorded as “specifically binds”.
With “CGSSLVGLHSYWSSPFF (Polystyrene-binding peptide 117) [SEQ ID NO:117]”, the mean adhesion force entry in experiment [5] is “approximately 300 pN”.
In the case of “SCSVYDHKIGRDSFYSGCS (Chondrocyte-binding peptide 101) [SEQ ID NO:101]”, the “preference for chondrocytes over endothelial cells” value with Human chondrocytes is “greater than 10 fold”.

The values are drawn from US20060263830A1, “Interfacial biomaterials” (priority 2001, published 2006).
